In patent publication US8846570B2, “Herbicidal compositions comprising 4-amino-3-chloro-5-fluoro-6-(4-chloro-2-fluoro-3-methoxyphenyl)pyridine-2-carboxylic acid or a derivative thereof and microtubule inhibiting herbicides” (Dow AgroSciences LLC, priority 2012, dated 2014):

Legend:
Test in all cases: Pre-emergence soil-applied, greenhouse: visual weed control
Type in all cases: in vivo
[1] = system: Brachiaria platyphylla (Groseb.) Nash or Urochloa platyphylla (Nash) R.D. Webster (BRAPP)
Source text: (§1) Seeds or nutlets of the desired test plant species were planted in a soil matrix prepared by mixing a loam soil (e.g., 32 percent silt, 23 percent clay, and 45 percent sand, with a pH of about 6.5 and an organic matter content of about 1.9 percent) and calcareous grit in an 80 to 20 ratio. The soil matrix was contained in plastic pots with a volume of 1 quart and a surface area of 83.6 square centimeters (cm^2).
(§2) Treatments consisted of the benzyl ester of 4-amino-3-chloro-5-fluoro-6-(4-chloro-2-fluoro-3-methoxy-phenyl)pyridine-2-carboxylic acid (compound A) formulated as an SC (suspension concentrate) and various herbicidal components alone and in combination. Forms of compound A were applied on an acid equivalent basis.
(§3) Treatment requirements were calculated based upon the rates being tested, the concentration of active ingredient or acid equivalent in the formulation, and a 12 mL application volume at a rate of 187 L/ha.
(§4) For treatments comprised of formulated compounds, measured amounts of compounds were placed individually in 25 mL glass vials and diluted in a volume of 1.25% (v/v) Agri-Dex® crop oil concentrate (COC) to obtain 12× stock solutions. […] Application solutions were prepared by adding an appropriate amount of each stock solution (e.g., 1 mL) and diluted to the appropriate final concentrations with the addition of 10 mL of an aqueous mixture of 1.25% (v/v) COC so that the final spray solutions contained 1.25% (v/v) COC.
(§5) For treatments comprised of formulated and technical compounds, weighed amounts of the technical materials were placed individually in 25 mL glass vials and dissolved in a volume of 97:3 (v/v) acetone/DMSO to obtain 12× stock solutions, and measured amounts of the formulated compounds were placed individually in 25 mL glass vials and diluted in a volume of 1.5% (v/v) COC or water to obtain 12× stock solutions. […] Application solutions were prepared by adding an appropriate amount of each stock solution (e.g., 1 mL) and diluted to the appropriate final concentrations with the addition of an appropriate amount of an aqueous mixture of 1.5% (v/v) COC so that the final spray solutions contained 1.25% (v/v) COC. As required, additional water and/or 97:3 (v/v) acetone/DMSO was added to individual application solutions so that the final acetone and DMSO concentrations of the application solutions being compared were 8.1% and 0.25%, respectively.
(§6) All stock solutions and applications solutions were visually inspected for compound compatibility prior to application. Spray solutions were applied to the soil with an overhead Mandel track sprayer equipped with a 8002E nozzles calibrated to deliver 187 L/ha over an application area of 0.503 m^2 at a spray height of 18 inches (46 cm) above average pot height. Control pots were sprayed in the same manner with the solvent blank.
(§7) The treated and control pots were placed in a greenhouse and top watered as needed. When required to ensure good germination and healthy plants, a fungicide treatment and/or other chemical or physical treatment was applied. The pots were maintained in a greenhouse with an approximate 14 hr photoperiod which was maintained at about 29° C. during the day and 26° C. during the night. Nutrients (Peters® Excel 15-5-15 5-Ca 2-Mg) were applied in the irrigation solution as needed and water was added on a regular basis. Supplemental lighting was provided with overhead metal halide 1000-Watt lamps as necessary. After approximately 4 weeks, the condition of the test plants as compared with that of the untreated plants was determined visually and scored on a scale of 0 to 100 percent where 0 corresponds to no injury or growth inhibition and 100 corresponds to complete kill.
(§8) Colby's equation was used to determine the herbicidal effects expected from the mixtures (Colby, S. R. 1967. Calculation of the synergistic and antagonistic response of herbicide combinations. Weeds 15:20-22.). […]

[2] = system: Echinochloa crus-galli (L.) P. Beauv. (ECHCG)
Source text: as §1, §2, §3, §4, §5, §6, §7, §8

[3] = system: Echinochloa colonum (L.) Link (ECHCO)
Source text: as §1, §2, §3, §4, §5, §6, §7, §8

[4] = system: Sesbania exaltata (Raf.) Cory/Rydb. Ex Hill (SEBEX); conditions: Compound A Benzyl Ester 16 g ae/ha alone
Source text: as §1, §2, §3, §4, §5, §6, §7, §8

[5] = system: Setaria faberi Herrm. (SETFA)
Source text: as §1, §2, §3, §4, §5, §6, §7, §8

[6] = system: Xanthium strumarium L. (XANST); conditions: 27 DAA
Source text: as §1, §2, §3, §4, §5, §6, §7, §8

[7] = Compound A Benzyl Ester 16 g ae/ha alone
[8] = Compound A Benzyl Ester 32 g ae/ha alone

COc1c(Cl)ccc(-c2nc(C(=O)OCc3ccccc3)c(Cl)c(N)c2F)c1F [Compound A Benzyl Ester, benzyl ester of 4-amino-3-chloro-5-fluoro-6-(4-chloro-2-fluoro-3-methoxy-phenyl)pyridine-2-carboxylic acid]
Visual Weed Control (%) - 33 DAA BRAPP Obs [1, 7]: 23% | Visual Weed Control (%) - 33 DAA BRAPP Obs [1, 8]: 50% | Visual Weed Control (%) - 33 DAA ECHCG Obs [2, 7]: 20% | Visual Weed Control (%) - 33 DAA ECHCG Obs [2, 8]: 33% | Visual Weed Control (%) - 33 DAA ECHCO Obs [3, 7]: 12% | Visual Weed Control (%) - 33 DAA ECHCO Obs [3, 8]: 3% | Visual Weed Control (%) - 33 DAA SEBEX Obs [4]: 40% | Visual Weed Control (%) - 33 DAA SETFA Obs [5, 7]: 13% | Visual Weed Control (%) - 33 DAA SETFA Obs [5, 8]: 13%

CSC(=O)c1c(C(F)F)nc(C(F)(F)F)c(C(=O)SC)c1CC(C)C [Dithiopyr, S,S′-dimethyl-2-(difluoromethyl)-4-(2-methylpropyl)-6-(trifluoromethyl)-3,5-pyridinedicarbothioate]
Visual Weed Control (%) Obs ([6]; 140 g ai/ha): 0% | Visual Weed Control (%) Obs ([6]; 280 g ai/ha): 17%
